System: Trichoderma reesei
Experiment: T. reesei cell kill, CFU count on PDA plates
Assay type: cell-based
Settings: pH 4, 24 hours, 40° C.
Method: Sodium benzoate was added to separate T. reesei aliquots to a final concentration of 2.5 g/L sodium benzoate or 5 g/L sodium benzoate. The aliquots were then adjusted to pH 4 and incubated for 24 hours at 40° C. After 24 hours of incubation all aliquots were pH adjusted to 4.8 using 10% (w/w) sodium hydroxide. Each aliquot was then serially diluted with sterile water, spread plated onto PDA, and incubated at 25° C. The incubated PDA plates were then counted for CFU.
The aliquots were then adjusted to pH 4 and incubated for 24 hours at 40° C. After 24 hours of incubation all aliquots were pH adjusted to 4.8 using 10% (w/w) sodium hydroxide. Each aliquot was then serially diluted with sterile water, spread plated onto PDA, and incubated at 25° C. The incubated PDA plates were then counted for CFU.

O=C([O-])c1ccccc1.[Na+] [sodium benzoate]
log reduction of viable cells (2.5 g/L sodium benzoate): 5 log
CFU present after incubation (5 g/L sodium benzoate): less than 10 CFU
log reduction of viable cells (5 g/L sodium benzoate): 7 log
